Like-named read-outs stand apart in the source and are kept apart here. Non-standard residues stand in square brackets, D forms with d. Residues, ends and D or L forms follow the SMILES beside them.
What was measured:
[1] = system: tunicamycin-induced rat photoreceptor cell damage model; conditions: rats, intravitreal, 2.7 μg/eye, 7 days after tunicamycin administration
Method: Such a model was thus used to evaluate the usefulness of the JNK-inhibitory peptide of the present invention against photoreceptor cell damage.
General anesthesia was induced in rats by intramuscular administration of 1 mL/kg of a mixture (7:1) of a 5% (W/V) ketamine hydrochloride injection solution and a 2% xylazine hydrochloride injection solution. A 0.5% (W/V) tropicamide-0.5% phenylephrine hydrochloride ophthalmic solution was instilled into their eyes to cause dilation of the pupils. Under conditions that ocular fundus is visualized, a microsyringe (25 μL volume, Hamilton) fitted with a 33 G needle was used and inserted into the vitreous cavity. To a control group, 54 of a mixture (1:9) of dimethyl sulfoxide and physiological saline was administered. […]
After 7 days from the administration of tunicamycin, general anesthesia was induced in the rats under dark adaptation by intramuscular administration of 1 mL/kg of a mixture (7:1) of a 5% (W/V) ketamine hydrochloride injection solution and a 2% xylazine hydrochloride injection solution. […] Then, using an electroretinogram (ERG) measurement apparatus (manufactured by Tomey Corporation, portable ERG&VEP LE-3000), ERGs (a-wave) were measured. Suppression ratio against reduction in ERG amplitude was subsequently calculated using an equation 4 shown below. […]

[2] = system: laser-induced rat choroidal neovascularization model; experiment: Laser-induced rat choroidal neovascularization model, fluorescent fundus angiography; format: in vivo; conditions: rats, intravitreal, 3 μg/eye, day 7 after photocoagulation
Method: As a pharmacological test model for investigating an inhibitory effect on choroidal neovascularization, a laser-induced choroidal neovascularization model is widely used (Folia Ophthalmologica Japonica, 45, 853-856 (1994)).
Photocoagulation was subsequently performed using a krypton laser photocoagulator (manufactured by NIDEK, a multicolor laser photocoagulator MC-7000). With focusing laser beam on the deep retinal layers, photocoagulation was conducted in the posterior portion of the ocular fundus at 8 spots per eye in a dispersed manner, while avoiding thick retinal blood vessels. After photocoagulation, fundus photography was performed to identify the laser-irradiated sites.
To a vehicle-administered group, 5 μL of physiological saline was administered.
Subsequently, 0.1 mL of a 10% fluorescein sodium solution was injected via the tail vein, and fluorescent fundus angiography (manufactured by Kowa, Fundus Camera Kowa PROIII) was performed. In fluorescent fundus angiography, spots at which fluorescence exposure was not observed was determined as negative (without neovascularization), and spots at which fluorescence exposure was observed were determined as positive (with neovascularization). Moreover, when there were two photocoagulation sites at which slight fluorescence exposure was observed, these photocoagulation sites were determined as positive (with neovascularization). […]

[3] = system: spermidine-induced retinal degeneration model; experiment: Spermidine-induced retinal degeneration model, ERG (a-wave) measurement; format: in vivo; conditions: rats, intravitreal
Source text: Therefore, a spermidine-induced retinal degeneration model is used as a model for evaluating therapeutic agents for diseases involving retinal pigment epithelial damage, such as atrophic AMD (Invest. Ophthalmol. Vis. Sci., 48 (1), 455-463 (2007) (NPL 1); Invest. Ophthalmol. Vis. Sci. 51, ARVO E-abstract 3644 (2010); etc.). Thus, an effect of the JNK-inhibitory peptide of the present invention on photoreceptor cell damage caused by retinal pigment epithelial damage was investigated using the aforementioned model, and then compared with that obtained by the representative JNK-inhibitor, SP600125.
To a control group, 10 μL of Dulbecco PBS was administered. To a vehicle-administered group, 10 μL of a 2 mM solution of spermidine dissolved in Dulbecco PBS was administered. To a peptide A-administered group, a 4 mM solution of spermidine dissolved in Dulbecco PBS was mixed with 0.6 mg/mL peptide A dissolved in Dulbecco PBS to give a 1:1 mixture, and 10 μL of the solution was administered into the vitreous cavity. To an SP600125-administered group, spermidine was dissolved in a 0.3 mg/mL solution of SP600125 dissolved in Dulbecco PBS to give a concentration of 2 mM, and 10 μL of the solution was administered into the vitreous cavity. As spermidine, “Spermidine, Trihydrochloride” (Cat. No. 56766), purchased from Calbiochem, was used. […] As SP600125, “SP600125” (Cat. No. S5567-50 MG), purchased from Sigma Aldrich, was used.
Suppression ratios against reduction in ERG amplitude were subsequently calculated using an equation 1 shown below.
Suppression ratio against reduction in ERG amplitude (%)=((Ex−Ev)/(Ec−Ev))×100, [Equation 1]

[4] = 3 μg/eye, 13 days after spermidine administration

| aggravated the reduction in ERG amplitude [3, 4] | SMILES | Suppression ratio against Reduction in ERG (a-Wave) amplitude (%) [1] | Suppression ratio against Reduction in ERG (a-Wave) amplitude (%) ([1]; listed as peptide A) | Suppression Ratio (%) of Choroidal Neovascularization Development [2] | Suppression Ratio (%) of Choroidal Neovascularization Development ([2]; listed as peptide A) | Suppression ratio against Reduction in ERG (a-Wave) amplitude (%) [3, 4] | Suppression ratio against Reduction in ERG (a-Wave) amplitude (%) ([3]; 3 μg/eye, 13 days after spermidine administration, listed as peptide A) | damage suppression effect in the spermidine model [3] |
| --- | --- | --- | --- | --- | --- | --- | --- | --- |
|  | CC(C)C[C@@H](NC(=O)[C@@H](CC(N)=O)NC(=O)[C@@H](CC(C)C)NC(=O)[C@H](NC(=O)[C@H](NC(=O)[C@H]1CCCN1C(=O)[C@@H](CCCNC(=N)N)NC(=O)[C@@H](CCCCN)NC(=O)[C@H]1CCCN1C(=O)[C@@H](CCCNC(=N)N)NC(=O)[C@H]1CCCN1C(=O)[C@H]1CCCN1C(=O)[C@@H](CCCNC(=N)N)NC(=O)[C@@H](CCCNC(=N)N)NC(=O)[C@@H](CCCNC(=N)N)NC(=O)[C@@H](CCC(N)=O)NC(=O)[C@@H](CCCNC(=N)N)NC(=O)[C@@H](CCCNC(=N)N)NC(=O)[C@@H](CCCCN)NC(=O)[C@@H](CCCCN)NC(=O)[C@@H](CCCNC(=N)N)NC(=O)CN)[C@H](C)O)[C@H](C)O)C(=O)N[C@H](Cc1ccccc1)C(=O)N1CCC[C@@H]1C(=O)N[C@H](CCC(N)=O)C(=O)N[C@@H](C(=O)N1CCC[C@@H]1C(=O)N[C@H](CCCNC(=N)N)C(=O)N[C@H](CO)C(=O)N[C@H](CCC(N)=O)C(=O)N[C@H](CC(=O)O)C(=O)O)C(C)C [Peptide A] (H-G[dR][dK][dK][dR][dR][dQ][dR][dR][dR][dP][dP][dR][dP][dK][dR][dP][dT][dT][dL][dN][dL][dF][dP][dQ][dV][dP][dR][dS][dQ][dD]-OH) | 50.0% | approximately 50% | 14.3% | approximately 14% | 72.7% | approximately 73% |  |
| approximately 18% | Oc1c2ccccc2c2c3c(cccc13)N=N2 [SP600125] |  |  |  |  | −17.6% |  | no damage suppression effect |

Reference: patent US20120101046A1, “PROPHYLACTIC OR THERAPEUTIC AGENT FOR RETINAL DISEASE AND METHOD FOR PROPHYLAXIS OR THERAPY OF RETINAL DISEASE USING JNK (C-JUN AMINO-TERMINAL KINASE) - INHIBITORY PEPTIDE, AND USE OF THE PEPTIDE” (priority 2009, published 2012)
